{"source": "patent US20240109873A1", "about": "“ANTAGONISTS OF THE MUSCARINIC ACETYLCHOLINE RECEPTOR M4” (Vanderbilt University, priority 2020, published 2024)", "test_system": "mice", "test": "haloperidol-induced catalepsy, a model of parkinsonian motor disability", "format": "in vivo", "from_the_text": "Furthermore, haloperidol-induced catalepsy, a model of parkinsonian motor disability, is reduced in M4 knockout mice as compared to wild-type controls. […] The reversal by scopolamine was uncommonly robust and more pronounced than we observe with agents targeting a number of other targets being evaluated for potential antiparkinsonian effects, including metabotropic glutamate (mGlu) receptors mGlu4 or mGlu5, A2A adenosine receptors, and NMDA receptors. […] Taken together with the extensive studies of M4 modulation of basal ganglia and motor function, these studies provide compelling evidence that M4 is the dominant mAChR subtype involved in the antiparkinsonian effects of non-selective mAChR antagonists and provide support for discovery and development of selective M4 antagonists for treatment of neurodegenerative disease such as PD, dystonia, tardive dyskinesia and other movement disorders."}
{"smiles": "CN1[C@@H]2C[C@@H](OC(=O)[C@H](CO)c3ccccc3)C[C@H]1[C@@H]1O[C@@H]12", "note": "[scopolamine]", "values": [{"measurement": "reduction of catalepsy induced by haloperidol", "setting": "M4 KO mice", "value": "ineffective in reducing catalepsy"}, {"measurement": "reversal of catalepsy induced by haloperidol", "setting": "WT mice", "value": "completely reversed"}]}
